According to patent publication US7285528B2, “Agonists and antagonists of gonadotropin-releasing hormone-2, and use thereof” (priority 2002, dated 2007):
Where a SMILES comes first, the peptide text is derived from it. [ ]: non-standard residue; d: D form. dPhe(4-Cl) = N[C@H](Cc1ccc(Cl)cc1)C(=O)O; d2Nal = N[C@H](Cc1ccc2ccccc2c1)C(=O)O; dCit = NC(=O)NCCC[C@@H](N)C(=O)O; d3Pal = N[C@H](Cc1cccnc1)C(=O)O; pGlu = O=C1CC[C@@H](C(=O)O)N1

Columns and labels:
bfGnRHR-3 [1] = test: Inhibition of GnRH-2-induced IP production, GH3 cells expressing bfGnRHR-3; format: cell-based, bullfrog; details: log of IC50 (negative values); half-maximal inhibition of IP production induced by GnRH-2 (1 nM, 10 nM elsewhere in the source)
Protocol: (§1) GH3 cell lines were obtained from the Cell Line Bank at the Cancer Research Center, Seoul National University College of Medicine, located in Seoul, Republic of Korea. The GH3 cell lines were infected with retroviruses comprising genes encoding bfGnRHR-1, bfGnRHR-2, and bfGnRHR-3 which are bullfrog GnRH receptors, and rat GnRHR, and cell lines expressing each of these receptors were obtained. The GH3 cells expressing bfGnRHR-1, bfGnRHR-2, bfGnRHR-3, and rat GnRHR were cultured on 12-well plates. After 24 hours, the cells were cultured again for 24 hours in a media containing no inositol, to which H^3-myoinositol was added. The resultant cells were washed with buffer A (140 mM NaCl, 20 mM HEPES, 4 mM KCl, 8 mM D-Glucose, 1 mM MgCl2, 1 mM CaCl2, 1 mg/ml BSA) and then cultured in buffer A containing 10 mM LiCl at 37°C. for 30 minutes. Thereafter, they were treated with GnRH having a suitable concentration, cultured at 37° C. for another 30 minutes, and then the media was eliminated. The cells were treated with 10 mM of ice-cold formic acid to terminate the reaction, and the cell extracts were mixed with Dowex anionic exchange resins. These resins were washed with distilled water, IP was extracted with 1 M ammonium formate/0.1 M formic acid, and cpm (count per minute) was determined.

bfGnRHR-2 = test: Inhibition of GnRH-2-induced IP production, GH3 cells expressing bfGnRHR-2; format: cell-based, bullfrog; details: log of IC50 (negative values); half-maximal inhibition of IP production induced by GnRH-2 (1 nM, 10 nM elsewhere in the source)
Protocol: as §1

bfGnRHR-3 [2] = test: Ligand-receptor binding assay, I125-GnRH-2 competition, membranes of GH3 cells expressing bfGnRHR-3; parameters: species or system bullfrog; details: log of IC50 (negative values); competition with I125-GnRH-2, 4° C., 16 hours
Protocol: To determine the binding affinity between GnRH and GnRH receptors, GnRH-2 was radiolabeled with I^125. The GH3 cells expressing bfGnRHR-1, bfGnRHR-2, bfGnRHR-3, and rat GnRHR constructed in Example 2-3 above were cultured on 100-mm dishes. After 48 hours, the cells were homogenized to obtain cellular membranes, which were then dissolved in binding buffer (40 mM Tris, pH 7.4, 2 mM MgCl2). 20 μg of membrane proteins were reacted with I^125-GnRH-2 at 4° C. for 16 hours. […] After the reaction was completed, 1^125-GnRH-2 bound to the receptors was filtered using a Brandel harvester, and cpm was measured using a γ-counter.
The GH3 cells expressing bfGnRHR-3 obtained from Example 6-1 above were treated with l^125GnRH-2 and GnRH-2 agonists and antagonists at various concentrations to determine the binding affinity of GnRH-2 agonists and antagonists toward the receptors.

Primate GnRH-2 receptor [3] = test: Inhibition of GnRH-2-induced c-fos-luc luciferase activity, cells expressing Primate GnRH-2 receptor; format: cell-based, Primates; details: for effect on luciferase activity induced by GnRH-2: GnRH-2 and antagonist treated at the same time
Protocol: Complimentary DNA (cDNA) for a Primate GnRH-2 receptor was obtained from a CV-1 cell genome. […] Plasmids having Primate GnRH-2 receptors where transfected into CV-1 cells. To assay the activity of the receptor, c-fos-luc where a luciferase gene is fused with a c-fos promoter was co-transfected as a probe gene. After 48 hours from transfection, the cells were treated with GnRH-2 agonists and then the activity of luciferase was assayed (Seong et al., Endocrinology vol 144 2003, 454-466). In the same manner as in 2-3 above, Primate GnRH-2 receptors were co-transfected along with c-fos-luc reporter genes, and after 48 hours, GnRH-2 and GnRH-2 antagonists were treated thereinto at the same time and then the effect of GnRH-2 antagonists was observed. […] Log IC50 value by antagonists is an average value of experiments that were conducted independently three times. ND stands for “not detected” which means that there are no inhibitory functions.

Primate GnRH-2 receptor [4] = test: c-fos-luc luciferase activation by agonists, CV-1 cells expressing Primate GnRH-2 receptor; format: cell-based, Primates; details: for Log EC50: log of EC50 (negative values), luciferase activation, average of three independent experiments
Protocol: Complimentary DNA (cDNA) for a Primate GnRH-2 receptor was obtained from a CV-1 cell genome. […] Plasmids having Primate GnRH-2 receptors where transfected into CV-1 cells. To assay the activity of the receptor, c-fos-luc where a luciferase gene is fused with a c-fos promoter was co-transfected as a probe gene. After 48 hours from transfection, the cells were treated with GnRH-2 agonists and then the activity of luciferase was assayed (Seong et al., Endocrinology vol 144 2003, 454-466). […] Of the GnRH-2 receptors, [[…]]GnRH-2 performed excellently, showing effects about 3 times that of a wild-type ligand, GnRH-2. […] When analogs where the 5th, 7th, and 8th amino acids of [[…]]GnRH-2 are substituted were used, it was observed that their effects were weaker than [[…]]GnRH-2, and therefore it can be seen that it is important to maintain His, Trp, and Tyr that are found at the 5th, 7th, and 8th positions of GnRH-2 as they are (FIG. 3b). Log EC50 values and Emax values of GnRH-2 agonists are average values of experiments that were conducted independently three times. Ratio^a represents the ratio of EC50 values of other GnRH analogs based on EC50 values of GnRH-2.

Molecule | effect on luciferase activity induced by GnRH-2 (Primate GnRH-2 receptor [3]) | Log EC50 (Primate GnRH-2 receptor [4]) | also measured
CC(=O)N[C@H](Cc1ccc2ccccc2c1)C(=O)N[C@H](Cc1ccc(Cl)cc1)C(=O)N[C@H](Cc1cccnc1)C(=O)N[C@@H](CO)C(=O)N[C@@H](Cc1ccc(O)cc1)C(=O)N[C@H](CCCNC(N)=O)C(=O)N[C@@H](CC(C)C)C(=O)N[C@@H](CCCNC(=N)N)C(=O)N1CCC[C@H]1C(=O)N[C@H](C)C(N)=O [Cetrorelix, Ac-D-2Nal-(4Cl)-D-Phe-D-3Pal-Ser-Tyr-D-Cit-Leu-Arg-Pro-D-Ala-NH2, reference compound] (Ac-[d2Nal][dPhe(4-Cl)][d3Pal]SY[dCit]LRP[dA]-NH2) | no effect |  | Log IC50 (bfGnRHR-3 [1]): −6.28 ± 0.13; Log IC50 (bfGnRHR-2): −6.43 ± 0.11; Binding affinity (log IC50 value) (bfGnRHR-3 [2]): −7.11 ± 0.08
CC(=O)N[C@H](Cc1ccc2ccccc2c1)C(=O)N[C@H](Cc1ccc(Cl)cc1)C(=O)N[C@H](Cc1cccnc1)C(=O)N[C@@H](CO)C(=O)N[C@@H](Cc1c[nH]cn1)C(=O)N[C@H](CCCNC(N)=O)C(=O)N[C@@H](Cc1c[nH]c2ccccc12)C(=O)N[C@@H](Cc1ccc(O)cc1)C(=O)N1CCC[C@H]1C(=O)N[C@H](C)C(N)=O [Trptorelix-2, Ac-D2Nal-(4Cl)D-Phe-D-3Pal-Ser-His-DCit-Trp-Tyr-Pro-DAla-NH2] (Ac-[d2Nal][dPhe(4-Cl)][d3Pal]SH[dCit]WYP[dA]-NH2) | reduced in a concentration-dependent manner |  | Log IC50 (Primate GnRH-2 receptor [3]; log of IC50 (negative values), reporter c-fos-luc, GnRH-2-induced luciferase, average of three experiments, ND = not detected, no inhibitory functions): −6.19 ± 0.12
Ac-D2Nal-(4Cl)D-Phe-D-3Pal-Ser-Tyr-DCit-Trp-Leu-Pro-DAla-NH2 (Ac-[d2Nal][dPhe(4-Cl)][d3Pal]SY[dCit]WLP[dA]-NH2; SMILES CC(=O)N[C@H](Cc1ccc2ccccc2c1)C(=O)N[C@H](Cc1ccc(Cl)cc1)C(=O)N[C@H](Cc1cccnc1)C(=O)N[C@@H](CO)C(=O)N[C@@H](Cc1ccc(O)cc1)C(=O)N[C@H](CCCNC(N)=O)C(=O)N[C@@H](Cc1c[nH]c2ccccc12)C(=O)N[C@@H](CC(C)C)C(=O)N1CCC[C@H]1C(=O)N[C@H](C)C(N)=O) [Trptorelix-3] | no effect |  | 
[D-Ala^6]GnRH-1: the agonist of GnRH-1 |  | −6.38 ± 0.10 | effect / sensitivity in luciferase activation (Primate GnRH-2 receptor [4]; compared with GnRH-2 or [D-Ala^6]GnRH-2): very low sensitivity as compared with GnRH-2
p-Glu-His-Trp-Ser-His-D-Lys-Trp-Tyr-Pro-Gly-NH2 ([pGlu]HWSH[dK]WYPG-NH2; SMILES NCCCC[C@@H](NC(=O)[C@H](Cc1c[nH]cn1)NC(=O)[C@H](CO)NC(=O)[C@H](Cc1c[nH]c2ccccc12)NC(=O)[C@H](Cc1c[nH]cn1)NC(=O)[C@@H]1CCC(=O)N1)C(=O)N[C@@H](Cc1c[nH]c2ccccc12)C(=O)N[C@@H](Cc1ccc(O)cc1)C(=O)N1CCC[C@H]1C(=O)NCC(N)=O) [[D-Lys^6]GnRH-2] |  | −8.57 ± 0.11 | 
pGlu-His-Trp-Ser-His-D-Ala-Leu-Tyr-Pro-Gly-NH2 ([pGlu]HWSH[dA]LYPG-NH2; SMILES CC(C)C[C@H](NC(=O)[C@@H](C)NC(=O)[C@H](Cc1c[nH]cn1)NC(=O)[C@H](CO)NC(=O)[C@H](Cc1c[nH]c2ccccc12)NC(=O)[C@H](Cc1c[nH]cn1)NC(=O)[C@@H]1CCC(=O)N1)C(=O)N[C@@H](Cc1ccc(O)cc1)C(=O)N1CCC[C@H]1C(=O)NCC(N)=O) [[D-Ala^6, Leu^7]GnRH-2] |  | −7.95 ± 0.10 | 
pGlu-His-Trp-Ser-His-D-Ala-Tyr-Trp-Pro-Gly-NH2 ([pGlu]HWSH[dA]YWPG-NH2; SMILES C[C@@H](NC(=O)[C@H](Cc1c[nH]cn1)NC(=O)[C@H](CO)NC(=O)[C@H](Cc1c[nH]c2ccccc12)NC(=O)[C@H](Cc1c[nH]cn1)NC(=O)[C@@H]1CCC(=O)N1)C(=O)N[C@@H](Cc1ccc(O)cc1)C(=O)N[C@@H](Cc1c[nH]c2ccccc12)C(=O)N1CCC[C@H]1C(=O)NCC(N)=O) [[D-Ala^6, Tyr^7, Trp^8]GnRH-2] |  | −7.57 ± 0.13 | 
pGlu-His-Trp-Ser-Leu-D-Ala-Trp-Tyr-Pro-Gly-NH2 ([pGlu]HWSL[dA]WYPG-NH2; SMILES CC(C)C[C@H](NC(=O)[C@H](CO)NC(=O)[C@H](Cc1c[nH]c2ccccc12)NC(=O)[C@H](Cc1c[nH]cn1)NC(=O)[C@@H]1CCC(=O)N1)C(=O)N[C@H](C)C(=O)N[C@@H](Cc1c[nH]c2ccccc12)C(=O)N[C@@H](Cc1ccc(O)cc1)C(=O)N1CCC[C@H]1C(=O)NCC(N)=O) [[Leu^5, D-Ala^6]GnRH-2] |  | −7.35 ± 0.12 | 
pGlu-His-Trp-Ser-Tyr-D-Ala-Trp-Leu-Pro-Gly-NH2 ([pGlu]HWSY[dA]WLPG-NH2; SMILES CC(C)C[C@H](NC(=O)[C@H](Cc1c[nH]c2ccccc12)NC(=O)[C@@H](C)NC(=O)[C@H](Cc1ccc(O)cc1)NC(=O)[C@H](CO)NC(=O)[C@H](Cc1c[nH]c2ccccc12)NC(=O)[C@H](Cc1c[nH]cn1)NC(=O)[C@@H]1CCC(=O)N1)C(=O)N1CCC[C@H]1C(=O)NCC(N)=O) [[Tyr^5, D-Ala^6, Leu^8]GnRH-2] |  | −7.90 ± 0.24 | 
